Data on five compounds can be found in ChEMBL document CHEMBL1138723, “Design of bivalent ligands using hydrogen bond linkers: synthesis and evaluation of inhibitors for human beta-tryptase” (Bioorg Med Chem Lett, 2004).

Assay [1] addresses Voltage-gated inwardly rectifying potassium channel KCNH2 (Homo sapiens, UniProt Q12809). Nature of the assay: Inhibitory activity against human Potassium channel HERG.
The next assay addresses Cytochrome P450 2C9 (Homo sapiens, UniProt P11712). Put plainly: Inhibitory activity against cytochrome P450 determined using human liver microsome upon 15 min incubation with probes substrates Tolbutamide (2C9). The format is ADME, microsomes. (Liver microsomes are a subcellular fraction often used to study metabolism.)
The next assay deals with Cytochrome P450 2C19 (Homo sapiens, UniProt P33261). Nature of the assay: Inhibitory activity against cytochrome P450 determined using human liver microsome upon 15 min incubation with probes substrates s-mephenytoin (2C19). The format is ADME, microsomes.
The target in another assay is Tryptase beta-1 (Homo sapiens, UniProt Q15661). Nature of the assay: Inhibitory activity against human mast cell tryptase beta.

Structures are written as SMILES.

Sequence of Tryptase beta-1 (Q15661 whole entry): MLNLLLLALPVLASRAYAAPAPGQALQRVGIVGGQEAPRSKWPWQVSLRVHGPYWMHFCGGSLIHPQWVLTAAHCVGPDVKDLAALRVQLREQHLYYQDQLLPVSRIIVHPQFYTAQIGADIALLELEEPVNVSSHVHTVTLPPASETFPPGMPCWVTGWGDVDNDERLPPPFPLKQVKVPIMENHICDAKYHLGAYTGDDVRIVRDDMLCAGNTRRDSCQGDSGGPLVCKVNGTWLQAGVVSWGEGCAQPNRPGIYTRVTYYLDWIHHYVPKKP
Sequence of Voltage-gated inwardly rectifying potassium channel KCNH2 (Q12809 whole entry): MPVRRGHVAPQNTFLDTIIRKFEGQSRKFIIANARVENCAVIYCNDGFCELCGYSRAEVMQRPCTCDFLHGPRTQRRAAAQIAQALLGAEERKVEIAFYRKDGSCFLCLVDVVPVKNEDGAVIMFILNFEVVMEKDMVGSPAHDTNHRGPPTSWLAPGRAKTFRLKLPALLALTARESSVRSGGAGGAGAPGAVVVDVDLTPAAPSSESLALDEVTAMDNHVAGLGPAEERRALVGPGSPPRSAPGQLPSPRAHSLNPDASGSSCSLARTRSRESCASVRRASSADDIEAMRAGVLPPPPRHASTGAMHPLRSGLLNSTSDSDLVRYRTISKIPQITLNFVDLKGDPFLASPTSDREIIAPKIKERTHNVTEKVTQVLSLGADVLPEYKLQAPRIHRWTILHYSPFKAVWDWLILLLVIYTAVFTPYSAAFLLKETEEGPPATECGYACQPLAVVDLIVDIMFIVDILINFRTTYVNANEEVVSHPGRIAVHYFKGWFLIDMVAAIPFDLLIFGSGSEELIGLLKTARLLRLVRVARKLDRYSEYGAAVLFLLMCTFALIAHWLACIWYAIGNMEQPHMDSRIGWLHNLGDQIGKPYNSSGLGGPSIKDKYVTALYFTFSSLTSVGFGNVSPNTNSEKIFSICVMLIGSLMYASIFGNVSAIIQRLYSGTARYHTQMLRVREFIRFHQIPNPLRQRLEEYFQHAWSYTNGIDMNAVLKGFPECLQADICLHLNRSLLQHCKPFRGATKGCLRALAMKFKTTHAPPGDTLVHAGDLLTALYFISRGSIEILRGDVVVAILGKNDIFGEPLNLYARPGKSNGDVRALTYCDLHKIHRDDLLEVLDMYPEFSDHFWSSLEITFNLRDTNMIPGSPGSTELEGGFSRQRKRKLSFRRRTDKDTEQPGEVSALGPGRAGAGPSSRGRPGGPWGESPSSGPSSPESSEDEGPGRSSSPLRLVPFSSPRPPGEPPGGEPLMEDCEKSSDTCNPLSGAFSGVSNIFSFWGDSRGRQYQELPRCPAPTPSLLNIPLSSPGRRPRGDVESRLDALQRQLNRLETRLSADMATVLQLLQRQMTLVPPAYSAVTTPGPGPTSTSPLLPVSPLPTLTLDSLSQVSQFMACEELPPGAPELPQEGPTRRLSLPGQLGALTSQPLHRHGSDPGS
Sequence of Cytochrome P450 2C19 (P33261 whole entry): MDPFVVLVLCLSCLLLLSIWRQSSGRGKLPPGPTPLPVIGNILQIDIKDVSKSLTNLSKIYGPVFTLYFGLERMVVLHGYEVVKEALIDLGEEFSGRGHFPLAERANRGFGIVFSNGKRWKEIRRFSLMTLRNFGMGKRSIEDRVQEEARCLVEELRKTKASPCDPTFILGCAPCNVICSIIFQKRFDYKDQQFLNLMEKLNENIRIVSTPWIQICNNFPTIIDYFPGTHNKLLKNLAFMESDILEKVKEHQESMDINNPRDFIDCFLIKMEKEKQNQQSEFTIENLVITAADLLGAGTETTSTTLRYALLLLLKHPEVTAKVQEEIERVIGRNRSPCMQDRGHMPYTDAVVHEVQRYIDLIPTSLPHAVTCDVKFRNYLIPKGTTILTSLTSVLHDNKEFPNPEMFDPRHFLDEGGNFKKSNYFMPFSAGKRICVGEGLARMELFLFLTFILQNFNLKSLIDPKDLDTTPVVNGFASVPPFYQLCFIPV
Sequence of Cytochrome P450 2C9 (P11712 whole entry): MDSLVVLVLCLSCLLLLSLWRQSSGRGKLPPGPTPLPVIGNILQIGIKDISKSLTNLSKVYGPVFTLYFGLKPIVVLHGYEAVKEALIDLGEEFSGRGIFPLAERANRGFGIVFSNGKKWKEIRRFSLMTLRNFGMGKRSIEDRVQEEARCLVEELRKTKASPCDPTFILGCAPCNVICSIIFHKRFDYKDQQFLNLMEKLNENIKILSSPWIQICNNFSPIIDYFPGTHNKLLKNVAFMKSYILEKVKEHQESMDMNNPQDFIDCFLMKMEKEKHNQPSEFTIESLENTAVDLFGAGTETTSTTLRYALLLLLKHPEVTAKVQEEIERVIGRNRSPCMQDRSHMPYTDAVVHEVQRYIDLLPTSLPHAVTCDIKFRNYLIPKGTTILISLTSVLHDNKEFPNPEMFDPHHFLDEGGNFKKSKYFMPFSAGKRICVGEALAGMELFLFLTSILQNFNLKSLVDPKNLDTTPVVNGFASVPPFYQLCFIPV

The term IC50 denotes the concentration that inhibits the measured activity by half. High values mean weaker potency, low ones greater potency. A word on the Ki: it is a measure of affinity in units of concentration, obtained from inhibition or displacement. Take `NCc1ccc(F)c(C2CCN(C(=O)c3cc(C(=O)O)cc(-c4nc(-c5cccs5)no4)c3)CC2)c1`: the concentration for half-maximal inhibition (IC50) in assay [1] was 76800 nM; against Cytochrome P450 2C9, over 50000 nM; against Cytochrome P450 2C19 it was over 50000 nM. This compound also returned a Ki on Tryptase beta-1 of 88 nM.
In turn, `NCc1cccc(C2CCN(C(=O)c3cc(C(N)=O)cc(-c4nc(-c5cccs5)no4)c3)CC2)c1` registered a Ki on Tryptase beta-1 of 1.5 nM.
Still for that read-out and setting: then `CCOC(=O)c1cc(C(=O)N2CCC(c3cc(CN)ccc3F)CC2)cc(-c2nc(-c3cccs3)no2)c1`, with 59 nM.
Turning to `NCc1ccc(F)c(C2CCN(C(=O)c3cccc(-c4nc(-c5cccs5)no4)c3)CC2)c1`, the figures for the IC50 (in assay [1]; at Cytochrome P450 2C9; on Cytochrome P450 2C19) were 800 nM, 480 nM and 2190 nM, respectively. The compound further had a Ki at Tryptase beta-1 of 4.3 nM.
`NCc1ccc(F)c(C2CCN(C(=O)c3cc(C(N)=O)cc(-c4nc(-c5cccs5)no4)c3)CC2)c1` registered a Ki at Tryptase beta-1 of 1.3 nM.
